Laboratory results published in the kinase profiling compilation of Christmann-Franck et al. (2016).

Tests used:
Experiment in all cases: KINOMEscan competition binding
Details in all cases: compound 10.0 µM
[1] = target: CDC42BPA (human) (UniProt Q5VT25)
[2] = tested on: FLT3 (human), P36888 [ITD]
[3] = tested on: KIT (human), P10721 [D816V]
[4] = target: RIOK3 (human) (UniProt O14730)
[5] = target: RET (human) (UniProt P07949)
[6] = target: ABL2 (human) (UniProt P42684)
[7] = target: CAMKK1 (human) (UniProt Q8N5S9)
[8] = target: MAP3K7 (human) (UniProt O43318)
[9] = target: PKN2 (human) (UniProt Q16513)
[10] = target: AKT1 (human) (UniProt P31749)
[11] = target: TNIK (human) (UniProt Q9UKE5)
[12] = target: BTK (human) (UniProt Q06187)
[13] = target: MLTK (human) (UniProt Q9NYL2)
[14] = target: SRPK3 (human) (UniProt Q9UPE1)
[15] = target: AXL (human) (UniProt P30530)
[16] = target: ACVR1 (human) (UniProt Q04771)
ACVR1 (human), sequence (Q04771 whole entry, looked up): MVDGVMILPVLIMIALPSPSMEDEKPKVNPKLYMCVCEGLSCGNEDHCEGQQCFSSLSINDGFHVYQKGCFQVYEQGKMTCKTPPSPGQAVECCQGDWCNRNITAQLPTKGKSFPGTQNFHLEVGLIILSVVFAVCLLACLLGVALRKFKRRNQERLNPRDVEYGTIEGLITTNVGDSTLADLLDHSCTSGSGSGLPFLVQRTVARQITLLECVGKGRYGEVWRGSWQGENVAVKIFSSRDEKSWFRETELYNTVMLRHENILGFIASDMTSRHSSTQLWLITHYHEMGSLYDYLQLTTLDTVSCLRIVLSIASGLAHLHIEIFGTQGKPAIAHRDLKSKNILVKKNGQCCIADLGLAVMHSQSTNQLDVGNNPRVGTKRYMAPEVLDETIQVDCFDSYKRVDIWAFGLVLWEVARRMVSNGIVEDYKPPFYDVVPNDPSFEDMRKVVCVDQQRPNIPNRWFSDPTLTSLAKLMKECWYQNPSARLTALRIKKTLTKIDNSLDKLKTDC

[17] = target: STK36 (human) (UniProt Q9NRP7)
[18] = target: PAK2 (human) (UniProt Q13177)
[19] = target: DYRK1B (human) (UniProt Q9Y463)
[20] = tested on: EGFR (human), P00533 [747-751 del / S ins]
[21] = target: CAMK2D (human) (UniProt Q13557)
CAMK2D (human), sequence (Q13557 whole entry, looked up): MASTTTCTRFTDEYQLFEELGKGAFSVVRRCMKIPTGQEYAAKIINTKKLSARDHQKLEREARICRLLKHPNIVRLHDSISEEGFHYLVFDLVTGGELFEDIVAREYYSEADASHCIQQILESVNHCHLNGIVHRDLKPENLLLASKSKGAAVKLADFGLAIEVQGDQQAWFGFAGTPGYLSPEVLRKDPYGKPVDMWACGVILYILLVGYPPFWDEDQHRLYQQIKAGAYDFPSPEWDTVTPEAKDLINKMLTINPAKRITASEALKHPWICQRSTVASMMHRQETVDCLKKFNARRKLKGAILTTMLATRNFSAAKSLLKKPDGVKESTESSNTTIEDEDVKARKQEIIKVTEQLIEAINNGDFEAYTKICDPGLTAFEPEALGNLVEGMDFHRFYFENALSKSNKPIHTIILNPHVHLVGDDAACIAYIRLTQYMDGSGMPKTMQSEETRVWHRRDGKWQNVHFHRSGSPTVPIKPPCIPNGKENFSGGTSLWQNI

[22] = target: MAPKAPK5 (human) (UniProt Q8IW41)
[23] = target: CDK17 (human) (UniProt Q00537)
[24] = target: WEE1 (human) (UniProt P30291)
[25] = target: STK32B (human) (UniProt Q9NY57)
[26] = target: MAPK12 (human) (UniProt P53778)
[27] = target: MAP2K2 (human) (UniProt P36507)
[28] = target: NEK9 (human) (UniProt Q8TD19)
[29] = target: CAMK2B (human) (UniProt Q13554)
[30] = tested on: EGFR (human), P00533 [746-750 del]
[31] = target: MAPK14 (human) (UniProt Q16539)
MAPK14 (human), sequence (Q16539 whole entry, looked up): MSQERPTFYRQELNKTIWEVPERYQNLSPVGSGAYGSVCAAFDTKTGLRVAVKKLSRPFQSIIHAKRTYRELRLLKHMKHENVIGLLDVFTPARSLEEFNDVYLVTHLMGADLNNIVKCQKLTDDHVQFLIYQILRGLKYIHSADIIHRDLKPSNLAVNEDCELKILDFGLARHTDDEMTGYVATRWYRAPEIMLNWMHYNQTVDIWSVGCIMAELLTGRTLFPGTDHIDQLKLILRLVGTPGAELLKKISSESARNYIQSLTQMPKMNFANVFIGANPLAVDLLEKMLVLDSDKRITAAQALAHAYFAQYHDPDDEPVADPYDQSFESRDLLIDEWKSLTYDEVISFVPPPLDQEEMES

[32] = target: SLK (human) (UniProt Q9H2G2)
[33] = target: STK35 (human) (UniProt Q8TDR2)
[34] = target: PRKD3 (human) (UniProt O94806)
[35] = target: PLK3 (human) (UniProt Q9H4B4)
[36] = target: MAPK13 (human) (UniProt O15264)
[37] = target: RPS6KA6 KD2 (human) (UniProt Q9UK32)
RPS6KA6 KD2 (human), sequence (Q9UK32 whole entry, looked up): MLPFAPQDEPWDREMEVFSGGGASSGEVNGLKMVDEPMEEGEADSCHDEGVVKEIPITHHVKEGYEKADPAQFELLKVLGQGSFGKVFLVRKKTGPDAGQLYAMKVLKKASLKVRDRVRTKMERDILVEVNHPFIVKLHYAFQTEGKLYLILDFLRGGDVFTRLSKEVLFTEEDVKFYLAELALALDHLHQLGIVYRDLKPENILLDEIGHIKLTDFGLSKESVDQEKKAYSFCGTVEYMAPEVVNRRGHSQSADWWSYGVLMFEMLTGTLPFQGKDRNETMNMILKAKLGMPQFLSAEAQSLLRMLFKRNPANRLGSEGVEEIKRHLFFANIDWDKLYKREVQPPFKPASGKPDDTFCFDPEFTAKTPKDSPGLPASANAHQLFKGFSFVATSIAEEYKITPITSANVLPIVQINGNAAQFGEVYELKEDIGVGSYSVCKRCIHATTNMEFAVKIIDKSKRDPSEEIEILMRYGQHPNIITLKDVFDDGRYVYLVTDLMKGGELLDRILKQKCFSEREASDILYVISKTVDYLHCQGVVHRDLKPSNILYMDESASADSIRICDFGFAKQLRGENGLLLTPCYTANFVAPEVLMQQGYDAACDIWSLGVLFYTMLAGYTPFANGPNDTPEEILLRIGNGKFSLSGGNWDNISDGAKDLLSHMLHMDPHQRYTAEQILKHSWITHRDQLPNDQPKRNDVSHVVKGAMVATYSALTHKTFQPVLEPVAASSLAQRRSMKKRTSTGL

[38] = target: CAMK2G (human) (UniProt Q13555)
CAMK2G (human), sequence (Q13555 whole entry, looked up): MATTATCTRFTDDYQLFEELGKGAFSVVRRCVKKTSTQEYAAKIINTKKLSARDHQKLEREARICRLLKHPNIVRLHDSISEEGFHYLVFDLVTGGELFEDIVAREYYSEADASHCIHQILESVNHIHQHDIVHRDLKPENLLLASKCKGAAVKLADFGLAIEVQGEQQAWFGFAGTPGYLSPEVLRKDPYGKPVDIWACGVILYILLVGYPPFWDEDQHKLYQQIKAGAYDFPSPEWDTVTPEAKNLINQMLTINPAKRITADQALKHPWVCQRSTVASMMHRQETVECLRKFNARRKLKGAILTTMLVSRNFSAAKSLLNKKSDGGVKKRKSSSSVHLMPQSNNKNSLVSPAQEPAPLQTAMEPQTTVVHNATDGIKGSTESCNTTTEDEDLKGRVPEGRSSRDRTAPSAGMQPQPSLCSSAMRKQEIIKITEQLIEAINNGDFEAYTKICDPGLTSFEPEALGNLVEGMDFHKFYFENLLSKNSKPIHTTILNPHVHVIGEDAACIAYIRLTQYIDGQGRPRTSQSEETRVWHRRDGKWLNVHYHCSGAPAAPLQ

[39] = target: PRKACB (human) (UniProt P22694)
[40] = target: KIT (human) (UniProt P10721)
KIT (human), sequence (P10721 whole entry, looked up): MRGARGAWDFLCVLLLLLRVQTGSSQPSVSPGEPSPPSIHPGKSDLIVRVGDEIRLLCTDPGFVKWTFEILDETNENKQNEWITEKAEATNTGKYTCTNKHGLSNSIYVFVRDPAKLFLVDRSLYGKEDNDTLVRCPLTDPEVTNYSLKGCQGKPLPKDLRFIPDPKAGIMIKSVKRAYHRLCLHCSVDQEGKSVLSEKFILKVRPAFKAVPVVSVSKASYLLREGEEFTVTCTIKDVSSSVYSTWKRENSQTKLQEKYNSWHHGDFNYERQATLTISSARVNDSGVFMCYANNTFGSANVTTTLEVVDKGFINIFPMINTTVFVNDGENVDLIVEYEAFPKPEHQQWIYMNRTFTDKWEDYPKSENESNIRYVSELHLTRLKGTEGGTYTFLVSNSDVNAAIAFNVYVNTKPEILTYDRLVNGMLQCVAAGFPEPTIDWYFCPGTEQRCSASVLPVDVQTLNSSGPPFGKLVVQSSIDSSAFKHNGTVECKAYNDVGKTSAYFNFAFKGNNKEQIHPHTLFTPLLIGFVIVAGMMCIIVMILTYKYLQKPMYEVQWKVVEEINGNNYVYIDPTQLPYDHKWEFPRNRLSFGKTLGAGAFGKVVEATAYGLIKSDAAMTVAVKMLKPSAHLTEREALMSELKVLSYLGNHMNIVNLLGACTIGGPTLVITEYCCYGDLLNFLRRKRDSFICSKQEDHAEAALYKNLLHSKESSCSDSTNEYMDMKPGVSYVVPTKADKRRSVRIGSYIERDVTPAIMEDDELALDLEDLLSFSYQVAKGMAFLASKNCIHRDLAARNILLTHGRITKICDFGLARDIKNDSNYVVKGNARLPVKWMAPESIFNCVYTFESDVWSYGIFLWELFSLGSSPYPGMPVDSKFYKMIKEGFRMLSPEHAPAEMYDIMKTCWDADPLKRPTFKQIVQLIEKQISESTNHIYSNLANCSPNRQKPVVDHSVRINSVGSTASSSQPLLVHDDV

[41] = tested on: KIT (human), P10721 [V559D/T670I]
KIT (human), P10721 [V559D/T670I], sequence (P10721 whole entry V559D/T670I, looked up): as the sequence (P10721 whole entry, looked up) above, with V559D, T670I counted along it

[42] = target: STK24 (human) (UniProt Q9Y6E0)

KIT (human), P10721 [D816V], sequence (P10721 whole entry D816V, looked up): as the sequence (P10721 whole entry, looked up) above, with D816V counted along it
RET (human), sequence (P07949 whole entry, looked up): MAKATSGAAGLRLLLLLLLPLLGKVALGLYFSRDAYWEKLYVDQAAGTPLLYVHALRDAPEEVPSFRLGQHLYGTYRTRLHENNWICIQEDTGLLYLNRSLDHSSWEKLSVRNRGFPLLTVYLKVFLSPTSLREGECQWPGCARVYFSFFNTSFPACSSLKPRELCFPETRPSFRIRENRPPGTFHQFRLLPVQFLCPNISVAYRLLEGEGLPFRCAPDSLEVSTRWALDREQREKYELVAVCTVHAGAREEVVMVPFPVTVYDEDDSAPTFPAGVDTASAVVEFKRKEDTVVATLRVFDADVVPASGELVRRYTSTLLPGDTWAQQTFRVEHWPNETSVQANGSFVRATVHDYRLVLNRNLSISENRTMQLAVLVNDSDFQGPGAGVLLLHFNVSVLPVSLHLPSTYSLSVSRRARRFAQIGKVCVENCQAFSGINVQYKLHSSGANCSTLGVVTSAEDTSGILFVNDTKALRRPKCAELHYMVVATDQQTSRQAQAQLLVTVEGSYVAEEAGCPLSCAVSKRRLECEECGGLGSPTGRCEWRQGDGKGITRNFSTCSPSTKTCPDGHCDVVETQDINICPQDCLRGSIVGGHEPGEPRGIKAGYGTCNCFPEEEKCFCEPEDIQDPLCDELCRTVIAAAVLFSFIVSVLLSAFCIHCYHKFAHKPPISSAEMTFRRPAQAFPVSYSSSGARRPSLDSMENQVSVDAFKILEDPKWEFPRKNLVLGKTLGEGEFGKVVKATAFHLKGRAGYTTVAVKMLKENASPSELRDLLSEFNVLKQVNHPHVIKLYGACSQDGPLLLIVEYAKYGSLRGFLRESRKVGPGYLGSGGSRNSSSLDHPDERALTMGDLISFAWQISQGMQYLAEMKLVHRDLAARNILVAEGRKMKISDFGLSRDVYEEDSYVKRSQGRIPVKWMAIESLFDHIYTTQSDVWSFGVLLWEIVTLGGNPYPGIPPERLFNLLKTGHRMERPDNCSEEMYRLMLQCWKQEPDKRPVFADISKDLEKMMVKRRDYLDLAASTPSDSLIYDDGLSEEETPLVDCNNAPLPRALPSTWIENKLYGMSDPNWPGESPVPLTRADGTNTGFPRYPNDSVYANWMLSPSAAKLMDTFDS

## CCN1CCN(Cc2ccc(NC(=O)c3ccc(C)c(/C=C/c4cnc(Nc5cc(N6CCNCC6)nc(C)n5)cn4)c3)cc2C(F)(F)F)CC1
[1]
  kinase still bound, per cent of control: 100%
[2]
  kinase still bound, per cent of control: 5.6%
[3]
  kinase still bound, per cent of control: 25%
[4]
  kinase still bound, per cent of control: 78%
[5]
  kinase still bound, per cent of control: 0.15%
[6]
  kinase still bound, per cent of control: 0.7%
[7]
  kinase still bound, per cent of control: 98%
[8]
  kinase still bound, per cent of control: 0.75%
[9]
  kinase still bound, per cent of control: 100%
[10]
  kinase still bound, per cent of control: 100%
[11]
  kinase still bound, per cent of control: 1.9%
[12]
  kinase still bound, per cent of control: 0.2%
[13]
  kinase still bound, per cent of control: 1.2%
[14]
  kinase still bound, per cent of control: 82%
[15]
  kinase still bound, per cent of control: 26%
[16]
  kinase still bound, per cent of control: 100%
[17]
  kinase still bound, per cent of control: 0.1%
[18]
  kinase still bound, per cent of control: 69%
[19]
  kinase still bound, per cent of control: 76%
[20]
  kinase still bound, per cent of control: 4.6%
[21]
  kinase still bound, per cent of control: 100%
[22]
  kinase still bound, per cent of control: 80%
[23]
  kinase still bound, per cent of control: 60%
[24]
  kinase still bound, per cent of control: 100%
[25]
  kinase still bound, per cent of control: 100%
[26]
  kinase still bound, per cent of control: 39%
[27]
  kinase still bound, per cent of control: 11%
[28]
  kinase still bound, per cent of control: 27%
[29]
  kinase still bound, per cent of control: 92%
[30]
  kinase still bound, per cent of control: 17%
[31]
  kinase still bound, per cent of control: 4.6%
[32]
  kinase still bound, per cent of control: 2.4%
[33]
  kinase still bound, per cent of control: 57%
[34]
  kinase still bound, per cent of control: 71%
[35]
  kinase still bound, per cent of control: 83%
[36]
  kinase still bound, per cent of control: 83%
[37]
  kinase still bound, per cent of control: 11%
[38]
  kinase still bound, per cent of control: 100%
[39]
  kinase still bound, per cent of control: 90%
[40]
  kinase still bound, per cent of control: 0.15%
[41]
  kinase still bound, per cent of control: 14%
[42]
  kinase still bound, per cent of control: 30%

## COc1cc(N2CCC(N3CCN(C)CC3)CC2)ccc1Nc1ncc(Cl)c(Nc2ccccc2S(=O)(=O)C(C)C)n1
[1]
  kinase still bound, per cent of control: 40%
[3]
  kinase still bound, per cent of control: 3.1%
[4]
  kinase still bound, per cent of control: 3.2%
[6]
  kinase still bound, per cent of control: 1.4%
[7]
  kinase still bound, per cent of control: 0.2%
[8]
  kinase still bound, per cent of control: 2.2%
[9]
  kinase still bound, per cent of control: 3.2%
[10]
  kinase still bound, per cent of control: 40%
[11]
  kinase still bound, per cent of control: 12%
[12]
  kinase still bound, per cent of control: 0%
[13]
  kinase still bound, per cent of control: 40%
[14]
  kinase still bound, per cent of control: 1.7%
[15]
  kinase still bound, per cent of control: 0.1%
[16]
  kinase still bound, per cent of control: 0%
[17]
  kinase still bound, per cent of control: 5.8%
[18]
  kinase still bound, per cent of control: 30%
[19]
  kinase still bound, per cent of control: 40%
[20]
  kinase still bound, per cent of control: 0.6%
[21]
  kinase still bound, per cent of control: 4.1%
[22]
  kinase still bound, per cent of control: 40%
[23]
  kinase still bound, per cent of control: 9.9%
[24]
  kinase still bound, per cent of control: 17%
[25]
  kinase still bound, per cent of control: 0.2%
[26]
  kinase still bound, per cent of control: 40%
[27]
  kinase still bound, per cent of control: 1.8%
[28]
  kinase still bound, per cent of control: 3.3%
[29]
  kinase still bound, per cent of control: 5.8%
[30]
  kinase still bound, per cent of control: 0%
[31]
  kinase still bound, per cent of control: 40%
[32]
  kinase still bound, per cent of control: 0.1%
[34]
  kinase still bound, per cent of control: 0%
[35]
  kinase still bound, per cent of control: 0%
[36]
  kinase still bound, per cent of control: 40%
[37]
  kinase still bound, per cent of control: 1.8%
[38]
  kinase still bound, per cent of control: 2%
[39]
  kinase still bound, per cent of control: 9.9%
[40]
  kinase still bound, per cent of control: 0.1%
[41]
  kinase still bound, per cent of control: 0.95%
[42]
  kinase still bound, per cent of control: 24%

## CCOc1cc(N2CCC(N3CCCCC3)CC2)ccc1Nc1nc(Nc2ccccc2S(=O)(=O)C(C)C)c2cn[nH]c2n1
[1]
  kinase still bound, per cent of control: 100%
[2]
  kinase still bound, per cent of control: 100%
[3]
  kinase still bound, per cent of control: 74%
[4]
  kinase still bound, per cent of control: 88%
[5]
  kinase still bound, per cent of control: 100%
[6]
  kinase still bound, per cent of control: 97%
[7]
  kinase still bound, per cent of control: 46%
[8]
  kinase still bound, per cent of control: 59%
[9]
  kinase still bound, per cent of control: 100%
[10]
  kinase still bound, per cent of control: 100%
[11]
  kinase still bound, per cent of control: 87%
[12]
  kinase still bound, per cent of control: 32%
[13]
  kinase still bound, per cent of control: 100%
[14]
  kinase still bound, per cent of control: 100%
[15]
  kinase still bound, per cent of control: 100%
[16]
  kinase still bound, per cent of control: 60%
[17]
  kinase still bound, per cent of control: 100%
[18]
  kinase still bound, per cent of control: 82%
[19]
  kinase still bound, per cent of control: 42%
[20]
  kinase still bound, per cent of control: 19%
[21]
  kinase still bound, per cent of control: 34%
[22]
  kinase still bound, per cent of control: 100%
[23]
  kinase still bound, per cent of control: 100%
[24]
  kinase still bound, per cent of control: 100%
[25]
  kinase still bound, per cent of control: 64%
[26]
  kinase still bound, per cent of control: 100%
[27]
  kinase still bound, per cent of control: 94%
[28]
  kinase still bound, per cent of control: 100%
[29]
  kinase still bound, per cent of control: 65%
[30]
  kinase still bound, per cent of control: 20%
[31]
  kinase still bound, per cent of control: 98%
[32]
  kinase still bound, per cent of control: 14%
[33]
  kinase still bound, per cent of control: 100%
[34]
  kinase still bound, per cent of control: 36%
[35]
  kinase still bound, per cent of control: 98%
[36]
  kinase still bound, per cent of control: 100%
[37]
  kinase still bound, per cent of control: 2.1%
[38]
  kinase still bound, per cent of control: 71%
[39]
  kinase still bound, per cent of control: 100%
[40]
  kinase still bound, per cent of control: 87%
[41]
  kinase still bound, per cent of control: 100%
[42]
  kinase still bound, per cent of control: 82%

## CCN1CCN(Cc2ccc(NC(=O)c3ccc(C)c(Oc4ccnc5[nH]ccc45)c3)cc2C(F)(F)F)CC1
[2]
  kinase still bound, per cent of control: 0.7%
[5]
  kinase still bound, per cent of control: 0%
[6]
  kinase still bound, per cent of control: 0.6%
[11]
  kinase still bound, per cent of control: 8.2%
[13]
  kinase still bound, per cent of control: 0.35%
[17]
  kinase still bound, per cent of control: 0.2%
[20]
  kinase still bound, per cent of control: 1.1%
[23]
  kinase still bound, per cent of control: 0.1%
[26]
  kinase still bound, per cent of control: 0%
[30]
  kinase still bound, per cent of control: 8.4%
[31]
  kinase still bound, per cent of control: 0%
[32]
  kinase still bound, per cent of control: 2%
[33]
  kinase still bound, per cent of control: 3%
[36]
  kinase still bound, per cent of control: 0.55%
[39]
  kinase still bound, per cent of control: 14%
[40]
  kinase still bound, per cent of control: 0%
[41]
  kinase still bound, per cent of control: 0.05%
